One assay deals with A549. Kind of assay: Cytotoxicity against human A549 cells after 24 hrs by MTT assay. The format is functional, cell-based. As to conditions: A549, 24 h. For orientation: Formazan colour is commonly taken as a measure of viable cells.
The subject of the next assay is MDA-MB-231. Put plainly: Cytotoxicity against human MDA-MB-231 cells after 24 hrs by MTT assay. Format: functional, cell-based. As to conditions: MDA-MB-231, 24 h.
Another assay deals with A2780. Put plainly: Cytotoxicity against human A2780 cells after 24 hrs by MTT assay. The format is functional, cell-based. As to conditions: A2780, 24 h.
The next assay deals with HeLa. Kind of assay: Cytotoxicity against human HeLa cells after 24 hrs by MTT assay. Format: functional, cell-based.
For a further assay, the system named is HT-29. Put plainly: Cytotoxicity against human HT-29 cells after 24 hrs by MTT assay. As to conditions: HT-29, 24 h. The format is functional, cell-based.
A further assay has as its system HUVEC. Kind of assay: Cytotoxicity against human HUVEC after 24 hrs by MTT assay. Format: cell-based.

The IC50 is the point on the concentration scale where inhibition reaches its midpoint. For the compound `C/C=C(\C)C(=O)C[C@@H]1[C@@]2(C)[C@@H](O)CCC(C)(C)[C@]2(O)CC[C@@]1(C)O`, the IC50 with A549, in the assay with MDA-MB-231, with A2780, in the assay on HeLa, in the assay on HT-29 and in the assay with HUVEC was greater than 10 µM throughout.
For `C=C([C@H](C)O)[C@@H]1C[C@@H]2[C@@]3(C)[C@@H](O)CCC(C)(C)[C@]3(O)CC[C@@]2(C)O1`, the IC50 in the assay on A549, in the assay with MDA-MB-231, in the assay with A2780, in the assay with HeLa, in the assay on HT-29 and in the assay with HUVEC was greater than 10 µM each time.
Consider `C=C(C(C)=O)[C@H]1C[C@@H]2[C@@]3(C)[C@@H](O)CCC(C)(C)[C@]3(O)CC[C@@]2(C)O1`, for which the IC50 in the assay with A549 is greater than 10 µM; in the assay with MDA-MB-231 it was 5.4 µM; in the assay with A2780, 4.4 µM; with HeLa, 5.5 µM; in the assay on HT-29, 7 µM; in the assay with HUVEC, greater than 10 µM.
Consider `C=C(C(C)=O)[C@@H]1C[C@H]2[C@@](C)(CC[C@@]3(O)C(C)(C)CCC[C@]23C)O1`, for which the IC50 in the assay with A549 was greater than 10 µM; with MDA-MB-231, 4.2 µM; in the assay with A2780, 8.6 µM; in the assay on HeLa, 8.3 µM; with HT-29 it was 5.2 µM; in the assay on HUVEC, 3 µM.
As to `C=C(C(C)=O)[C@@H]1C[C@H]2[C@@](C)(CC[C@@]3(O)C(C)(C)CCC(=O)[C@]23C)O1`, the half-inhibitory concentration (IC50) in the assay on A549 is greater than 10 µM; with MDA-MB-231, 5 µM; with A2780 it was 7.8 µM; with HeLa, 8.7 µM; in the assay with HT-29, 6.8 µM; in the assay with HUVEC, greater than 10 µM.
Consider `C[C@@H]1O[C@@]1(C)C(=O)C[C@@H]1[C@@]2(C)[C@@H](O)CCC(C)(C)[C@]2(O)CC[C@@]1(C)O`, for which the concentration for half-maximal inhibition (IC50) in the assay with A549, in the assay with MDA-MB-231, in the assay with A2780, in the assay on HeLa, in the assay on HT-29 and in the assay on HUVEC was greater than 10 µM in each case.
`C/C=C(\C)C(=O)C[C@H]1[C@](C)(O)CC[C@@]2(O)C(C)(C)CCC[C@]12C`: the IC50 with A549, with MDA-MB-231, in the assay on A2780, in the assay with HeLa, with HT-29 and in the assay on HUVEC was greater than 10 µM each time.
As for `C[C@@H]1O[C@@]1(C)C(=O)C[C@H]1[C@](C)(O)CC[C@@]2(O)C(C)(C)CCC[C@]12C`, the half-maximal inhibitory concentration (IC50) in the assay with A549, in the assay with MDA-MB-231, with A2780, in the assay on HeLa, in the assay on HT-29 and with HUVEC was greater than 10 µM throughout.
In the case of `C/C=C(\C)[C@@H]1C[C@H]2[C@@](C)(CC[C@@]3(O)C(C)(C)CCC(=O)[C@]23C)O1`, the 50% inhibitory concentration (IC50) in the assay with A549, in the assay with MDA-MB-231, with A2780, in the assay on HeLa, in the assay on HT-29 and in the assay with HUVEC was greater than 10 µM in each case.
As for `C[C@H]1O[C@]1(C)C(=O)C[C@H]1[C@](C)(O)CC[C@@]2(O)C(C)(C)CCC[C@]12C`, the IC50 in the assay on A549, with MDA-MB-231, in the assay on A2780, with HeLa, in the assay with HT-29 and in the assay on HUVEC was greater than 10 µM each time.
With `C/C=C(\C)C(=O)C[C@]1(O)[C@@]2(C)CCCC(C)(C)[C@]2(O)CC[C@@]1(C)O`, the IC50 with A549, in the assay on MDA-MB-231, in the assay with A2780, with HeLa, in the assay on HT-29 and in the assay with HUVEC was greater than 10 µM in each case.
For `C[C@H]1O[C@]1(C)C(=O)C[C@@H]1[C@@]2(C)[C@@H](O)CCC(C)(C)[C@]2(O)CC[C@@]1(C)O`, the half-maximal inhibitory concentration (IC50) in the assay with A549, in the assay with MDA-MB-231, with A2780, in the assay on HeLa, with HT-29 and in the assay on HUVEC was greater than 10 µM throughout.
As for `C=C(C(C)=O)[C@@H]1C[C@@H]2[C@@]3(C)[C@@H](O)CCC(C)(C)[C@]3(O)CC[C@@]2(C)O1`, the IC50 in the assay with A549 was greater than 10 µM; in the assay on MDA-MB-231, 4.1 µM; with A2780 it was 5.3 µM; with HeLa, 6.6 µM; with HT-29, 5.8 µM; with HUVEC, greater than 10 µM.
As for `C=C([C@@H]1C[C@H]2[C@@](C)(CC[C@@]3(O)C(C)(C)CCC[C@]23C)O1)[C@@H](C)O`, the IC50 in the assay with A549, with MDA-MB-231, in the assay with A2780, in the assay with HeLa, in the assay with HT-29 and in the assay with HUVEC was greater than 10 µM throughout.
`C=C([C@H](C)O)[C@@H]1C[C@H]2[C@@](C)(CC[C@@]3(O)C(C)(C)CCC[C@]23C)O1`: the IC50 in the assay on A549, with MDA-MB-231, with A2780, with HeLa, in the assay with HT-29 and in the assay on HUVEC was greater than 10 µM each time.
On to `C=C([C@H](C)O)[C@@H]1C[C@H]2[C@@](C)(CC[C@@]3(O)C(C)(C)CCC(=O)[C@]23C)O1`, for which the IC50 in the assay with A549, in the assay on MDA-MB-231, in the assay with A2780, in the assay with HeLa, in the assay on HT-29 and in the assay with HUVEC was greater than 10 µM in each case.
As to `C=C([C@@H]1C[C@H]2[C@@](C)(CC[C@@]3(O)C(C)(C)CCC(=O)[C@]23C)O1)[C@@H](C)O`, the IC50 with A549, in the assay on MDA-MB-231, in the assay on A2780, with HeLa, with HT-29 and with HUVEC was greater than 10 µM each time.
For the compound `CC1(C)CCC[C@]2(C)C3=CC(=O)O[C@]3(C)CC[C@@]12O`, the IC50 in the assay on A549, in the assay with MDA-MB-231, in the assay with A2780, with HeLa, with HT-29 and in the assay with HUVEC was greater than 10 µM in each case.
Take `C/C=C(\C)[C@@H]1C[C@H]2[C@@](C)(CC[C@@]3(O)C(C)(C)CCC[C@]23C)O1`: the IC50 with A549, in the assay on MDA-MB-231, in the assay on A2780, in the assay on HeLa, with HT-29 and in the assay on HUVEC was greater than 10 µM in each case.
With `COc1cccc2c1C(=O)c1c(O)c3c(c(O)c1C2=O)C[C@@](O)(C(=O)CO)C[C@@H]3O[C@H]1C[C@H](N)[C@H](O)[C@H](C)O1` [DOXORUBICIN], the IC50 was determined as 0.6 µM with MDA-MB-231, 5.2 µM with HeLa, 1.7 µM with HT-29 and 6.3 µM in the assay with HUVEC.
For the compound `C=C([C@@H]1C[C@@H]2[C@@]3(C)[C@@H](O)CCC(C)(C)[C@]3(O)CC[C@@]2(C)O1)[C@@H](C)O`, the IC50 in the assay on A549, with MDA-MB-231, with A2780, in the assay with HeLa, in the assay with HT-29 and in the assay with HUVEC was greater than 10 µM each time.

Values taken from ChEMBL document CHEMBL3600372, “Scapairrins A-Q, Labdane-Type Diterpenoids from the Chinese Liverwort Scapania irrigua and Their Cytotoxic Activity” (J Nat Prod, 2015).
